According to PMC9103758 (International Journal of Molecular Sciences, 2022):

Assays:
VRAC = biological target: T1, VRAC (Homo sapiens, UniProt Q8IWT6)
T1 sequence (Q8IWT6 1-810): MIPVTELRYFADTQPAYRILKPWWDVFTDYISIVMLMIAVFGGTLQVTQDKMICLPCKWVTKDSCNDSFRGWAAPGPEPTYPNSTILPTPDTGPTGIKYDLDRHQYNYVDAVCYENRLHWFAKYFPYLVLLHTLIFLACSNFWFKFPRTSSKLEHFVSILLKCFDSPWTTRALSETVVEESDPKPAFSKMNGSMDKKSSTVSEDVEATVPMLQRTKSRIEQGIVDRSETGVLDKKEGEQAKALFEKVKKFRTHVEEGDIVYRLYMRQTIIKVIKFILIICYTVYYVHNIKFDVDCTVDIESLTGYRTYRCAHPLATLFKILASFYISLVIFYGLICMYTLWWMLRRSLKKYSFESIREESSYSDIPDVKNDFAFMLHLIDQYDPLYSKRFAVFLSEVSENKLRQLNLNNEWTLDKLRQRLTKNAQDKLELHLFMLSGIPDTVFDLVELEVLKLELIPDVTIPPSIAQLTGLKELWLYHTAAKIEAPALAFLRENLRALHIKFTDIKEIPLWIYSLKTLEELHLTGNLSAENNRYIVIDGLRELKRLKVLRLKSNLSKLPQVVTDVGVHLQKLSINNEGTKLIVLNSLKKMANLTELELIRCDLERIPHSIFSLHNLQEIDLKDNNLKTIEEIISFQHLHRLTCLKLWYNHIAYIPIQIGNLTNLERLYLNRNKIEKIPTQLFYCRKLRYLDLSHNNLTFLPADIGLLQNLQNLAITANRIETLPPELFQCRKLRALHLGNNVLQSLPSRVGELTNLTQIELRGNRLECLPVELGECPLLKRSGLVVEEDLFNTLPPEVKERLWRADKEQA

ANO1 = biological target: T2, ANO1 (Homo sapiens, UniProt Q5XXA6, DEL476-501); assay: YFP fluorescence quenching assay for ANO1 activity in FRT-ANO1 cells; type: cell-based; conditions: ATP 100 μM, n = 4
T2 construct: expressed in transfected cells; host or cells: Fisher rat thyroid (FRT) cells; The YFP assay uses FRT-ANO1-YFP cells, which also carry the halide sensor
T2 sequence (Q5XXA6 with tags, fused parts or gaps isoform Q5XXA6-5 DEL539-564): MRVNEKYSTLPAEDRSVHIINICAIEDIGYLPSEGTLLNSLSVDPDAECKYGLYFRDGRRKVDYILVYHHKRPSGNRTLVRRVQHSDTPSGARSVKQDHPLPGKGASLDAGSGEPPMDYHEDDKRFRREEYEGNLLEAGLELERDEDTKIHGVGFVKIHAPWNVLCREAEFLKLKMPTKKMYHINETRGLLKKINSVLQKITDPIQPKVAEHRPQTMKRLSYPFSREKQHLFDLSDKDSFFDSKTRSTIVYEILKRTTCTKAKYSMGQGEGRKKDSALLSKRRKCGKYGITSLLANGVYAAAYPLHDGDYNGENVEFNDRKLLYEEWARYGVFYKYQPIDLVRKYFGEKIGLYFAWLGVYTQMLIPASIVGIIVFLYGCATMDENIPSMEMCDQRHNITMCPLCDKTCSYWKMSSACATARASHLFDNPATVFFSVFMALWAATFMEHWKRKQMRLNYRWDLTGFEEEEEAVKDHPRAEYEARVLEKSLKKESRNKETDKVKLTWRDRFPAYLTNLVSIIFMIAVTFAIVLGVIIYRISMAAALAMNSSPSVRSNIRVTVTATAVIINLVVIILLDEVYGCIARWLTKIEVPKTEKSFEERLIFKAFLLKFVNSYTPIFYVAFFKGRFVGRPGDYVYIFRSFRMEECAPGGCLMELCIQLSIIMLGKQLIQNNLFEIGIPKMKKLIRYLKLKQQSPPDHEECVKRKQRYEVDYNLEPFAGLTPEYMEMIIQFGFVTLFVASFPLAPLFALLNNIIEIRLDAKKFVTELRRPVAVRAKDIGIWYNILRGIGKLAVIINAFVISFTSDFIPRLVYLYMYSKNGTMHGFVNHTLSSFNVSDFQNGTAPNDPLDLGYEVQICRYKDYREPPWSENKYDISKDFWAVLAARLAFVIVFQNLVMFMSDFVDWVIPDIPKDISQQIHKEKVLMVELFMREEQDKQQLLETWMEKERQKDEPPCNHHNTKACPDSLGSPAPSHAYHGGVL
Method: Figure 2 Inhibitory effects of VI-101, VI-201 and VI-301 on VRAC and ANO1. (A–C) Representative YFP fluorescence traces for VRAC activity. LN215 cells were treated with the indicated concentrations of VI-101, VI-201 and VI-301 with hypotonic solution for 5 min. (D) Dose-response curve of VRAC inhibition (mean ± S.E., n = 4). (E–G) Representative YFP fluorescence traces for ANO1 activity. […]. (H) Dose-response curve of ANO1 inhibition (mean ± S.E., n = 4).
Human ANO1(abc) expressing Fisher rat thyroid (FRT) cells, ANO2 expressing FRT cells, and human CFTR expressing FRT cells were cultured as described in a previous study. LN215 cells were stably transfected with the halide sensor YFP-F46L/H148Q/I152 and NIH-3T3 cells cultured in DMEM were supplemented with 10% FBS, 2 mM L-glutamine, 100 units/mL penicillin, and 100 μg/mL streptomycin. HEK293T cells were stably transfected with the human Kv11.1 (hERG) and cultured in DMEM supplemented with 10% FBS, 2 mM L-glutamine, 100 units/mL penicillin, and 100 μg/mL streptomycin. PC3, HT29, and HeLa cells were stably transfected with the halide sensor YFP-F46L/H148Q/I152 and cultured in RPMI 1640 supplemented with 10% FBS, 2 mM L-glutamine, 100 units/mL penicillin, and 100 μg/mL streptomycin. […]

SMILES: COc1cccc(C(c2c(O)c3ccccc3oc2=O)c2c(O)c3ccccc3oc2=O)c1O [VI-116, 3,3′-((2-hydroxy-3-methoxyphenyl)methylene)bis(4-hydroxy-2H-chromen-2-one)]
- effect on VRAC (VRAC; 10 μM): completely inhibits
- effect on VRAC activity (VRAC-mediated I- quenching) (VRAC; LN215 cells): fully inhibited
- decrease of potency on VRAC with 10% FBS compared to without FBS (VRAC; LN215 cells, 10% FBS): 5.4 fold
- IC50 (ANO1): 39.1 µM
